The values below come from a melting point compilation (Tetko et al.).

As to `CCN1CC2(COC)C(O)CC(OC)C34C5CC6(O)C(O)C5C(O)(C(O)C6OC)C(C(OC)C23)C14` (stereo not given), the melting point – broadly, the temperature, or range, at which the solid turns liquid – amounted to 132 °C. The same measure for `O=c1[nH]oc2ccccc12`: 139 °C.

Take `CN1C(=O)COc2ccccc21`: the melting point was 59 °C.

`CC(O)C1(O)CC2C3CCC4(C)CC(O)CCC4(C)C3CCC2(C)C1` (stereo not given) had a melting point of 220 to 221 °C.

As to `CC(C)(C#N)C#N`, the melting point was 31.5 °C. The same measure for `O=C(c1ccco1)N1CCNCC1`: 68 °C; for `O=C(Nc1ccccc1)C1CCCC/C1=C\Cc1ccccc1` (stereo not given): 99 to 100 °C; for `CCCCCCCCOC(=O)CCCC`: -42.3 °C.

Molecule `c1csc(NC2=NCCN2)n1` returned a melting point of 240 to 242 °C. As to `CCCCCOC(=O)CCC(=O)OCCCCC`, the melting point was -10.8 °C. To `CCN(CC(=O)O)C(=O)OC(C)(C)C` belongs 88 °C; to `CC(C)CC1Nc2cc(Cl)c(S(N)(=O)=O)cc2S(=O)(=O)N1` (stereo not given), 222 °C. To `O=C=Nc1cc(Cl)ccc1Cl` belongs 30 °C; to `O=C(O)CCC(F)(F)C(F)(F)C(F)(F)C(F)(F)C(F)(F)C(F)(F)F`, 62 to 64 °C; to `CC1(C)OC2C(=O)OC(CO)C2O1` (stereo not given), 136 to 140 °C. The same measure for `O=[N+]([O-])c1c(O)cc(O)cc1O`: 189 °C; for `CCn1c(=O)c(C=C2C(=O)NN=C2c2c(O)c3ccccc3n(C)c2=O)c(O)c2ccccc21`: 295 °C; for `Cc1ccc(O)c(C(=O)CC(=O)c2ccccc2)c1`: 92 to 94 °C.

With `O=C(O)c1ccc(C(=O)C(F)(F)F)cc1`, the melting point lay within 178 to 181 °C. As for `O=C(CBr)c1ccc(N2CCOCC2)cc1`, the melting point was 112 to 115 °C.

`C1CCN2CC3CC(CN4CCCCC34)C2C1` (stereo not given) yielded a melting point of 30.5 °C. In the case of `CC(=O)Nc1ccc(Cl)c(N)c1`, the melting point was in the range of 168 to 172 °C.

As for `CC(=O)C(Cc1ccccc1)C(=O)OC1CC(C)CCC1C(C)C` (stereo not given), the melting point came to 68 °C. To `Cc1c(S(=O)(=O)c2ccc(Cl)cc2)csc1C(=O)O` belongs 252 to 256 °C; to `C=CCN=C(S)NCCO`, 78 °C. `CC1(C)OC2CC3C4CCC5=CC(=O)C=CC5(C)C4C(O)CC3(C)C2(C(=O)CO)O1` (stereo not given) registered a melting point of 274 °C. To `O=C1C=CC(=O)[C@@H]2Cc3ccccc3C[C@H]12` belongs 127 to 128 °C; to `Cc1cc(-c2cc(C)n(C)n2)n[nH]1`, 154 to 156 °C.

Molecule `NCCCCCCCCN` showed a melting point of 52 °C.

On to `CCCCCOC(=O)CC`, for which the melting point is -73.1 °C. The same measure for `CC(C)(C)OC(=O)N=NC(=O)OC(C)(C)C`: 90 to 92 °C; for `CCCC#CCCCC(=O)O`: -3 °C; for `CC(C)(C)c1ccc(C(C)(C)C)cc1`: 79.5 °C. To `CCC#CCC` belongs -103 °C; to `Nc1cc(C(=O)O)ccc1O`, 198 to 205 °C. Take `COC(=O)c1sccc1S(=O)(=O)Cl`: the melting point lay in the range of 62 to 66 °C. Molecule `O=C(O)CC1CCCC1` had a melting point of 12 °C. The same measure for `O=Cc1ccc2oc(C(=O)c3ccc(Br)cc3)cc2c1`: 177 to 178 °C; for `COC(=O)Nc1nc2cc(C(=O)c3ccc(F)cc3)ccc2[nH]1`: 260 °C; for `O=C(O)c1ccc2c(c1)OCCOCCOCCOCCO2`: 188 to 191 °C.

`CCCCC(C(N)=O)n1nnc2ccccc21` (stereo not given) had a melting point of 118 °C. Molecule `O=P(OCCCl)(OCCCl)OCCCl` showed a melting point of -35 °C.

With `O=C(OCC(COC(=O)c1ccccc1)OC(=O)c1ccccc1)c1ccccc1`, the melting point stood at 76 °C. To `CCCCC(CC)COC(=O)CCCCCCCC(=O)OCC(CC)CCCC` (stereo not given) belongs -78 °C; to `CCOC(=O)c1csnn1`, 86 to 88 °C.
